A word on the pEC50: it is the EC50 on a negative log10 scale, so that one unit is a factor of ten. For orientation: IC90 means the concentration at which the effect reaches the 90% level.

The structures appear in SMILES notation. pEC50: −log10 of the molar value. Some results are limits rather than exact numbers.

Test [1] deals with human activated kallikrein enzyme (Homo sapiens, UniProt P03952). The test is described as follows: Inhibition of human activated plasma kallikrein, fluorogenic peptide substrate (PFR-AMC), 500 pM enzyme format. It is filed as biochemical. The conditions noted are these: 500 pM activated kallikrein, 30 min preincubation, 10 min reaction, room temperature, read-out: Primary Dose Response Assay: Average EC50. An outline of the steps:
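Enzyme at 500 pM with […] PFR-AMC in 20 mM Tris pH 7.5, 1 mM EDTA, 150 mM NaCl, 0.1% PEG-400, 0.1% Triton X-100. Inhibitor preincubated 30 min, then 10 min reaction at room temperature; AMC fluorescence read at 380 nm excitation/460 nm emission.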

Test [2] concerns the target T1, plasma kallikrein (Homo sapiens, UniProt P03952).
T1 construct: from tissue; host or cells: sodium citrate collected human plasma
Description: Neat human plasma assay (fluorogenic peptide), contact pathway-activated plasma. It is filed as biochemical. The conditions noted are these: citrated human plasma, 10 nM human FXIIa activation, 100 μM PFR-AMC, room temperature; read-out: Human Plasma Assay: IC90. The protocol: To analyze inhibition of plasma kallikrein in an ex vivo setting, the potency of compounds was measure in contact pathway-activated plasma assays. In a fluorogenic peptide substrate assay, test compounds dissolved in DMSO were added to sodium citrate collected human or rat plasma in a 96-well microplate. Alternatively, citrated plasma was collected from rats administered the compounds orally or by IV. 10 nM of human FXIIa (Enzyme Research Laboratories) diluted in PKa buffer (20 mM Tris-HCl, pH 7.5, 150 mM NaCl, 1 mM EDTA, 0.100 PEG-8000, and 0.1% Triton X-100) was added to the plasma, followed by the 100 μM of the profluorescent, synthetic plasma kallikrein substrate PFR-AMC (also diluted in PKa buffer). Final plasma concentration in the reaction was […]. Fluorescence was immediately monitored by excitation/emission wavelengths of 360 nm/480 nm respectively over a period of 5 minutes in a microplate reader. The resulting linear increase in fluorescence emission (reflecting PKa proteolysis of PFR-AMC substrate) was fit to extract a proteolytic rate (fluorescent units over time), and this rate was subsequently plotted against compound inhibitor concentration. Resulting plots were fit to a standard 4-parameter IC50/C90 equation to determine min/max values, IC50/90, and slope. All experimental steps were performed at room temperature.

human activated kallikrein enzyme, sequence (P03952 391-638 limits assumed): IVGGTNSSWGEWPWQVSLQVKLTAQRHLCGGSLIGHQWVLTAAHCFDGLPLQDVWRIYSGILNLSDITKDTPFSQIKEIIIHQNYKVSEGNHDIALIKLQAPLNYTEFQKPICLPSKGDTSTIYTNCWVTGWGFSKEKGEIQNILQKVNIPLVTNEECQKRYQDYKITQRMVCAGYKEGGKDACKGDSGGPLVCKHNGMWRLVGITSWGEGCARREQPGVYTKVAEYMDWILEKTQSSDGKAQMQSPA
human activated kallikrein enzyme, sequence (P03952 20-390 partner limits assumed): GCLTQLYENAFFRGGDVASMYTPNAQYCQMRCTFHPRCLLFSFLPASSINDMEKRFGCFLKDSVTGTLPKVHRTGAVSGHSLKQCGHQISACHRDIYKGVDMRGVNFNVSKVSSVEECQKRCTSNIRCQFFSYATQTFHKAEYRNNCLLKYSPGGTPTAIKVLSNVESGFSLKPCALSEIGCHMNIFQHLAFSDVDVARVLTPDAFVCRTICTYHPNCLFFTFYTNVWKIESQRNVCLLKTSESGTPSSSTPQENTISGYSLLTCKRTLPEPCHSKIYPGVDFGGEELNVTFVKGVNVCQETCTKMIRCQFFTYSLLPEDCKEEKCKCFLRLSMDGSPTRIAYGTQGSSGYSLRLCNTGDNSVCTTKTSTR
T1 sequence (P03952 391-638 limits assumed): as the sequence (P03952 391-638 limits assumed) above
T1 sequence (P03952 20-390 partner limits assumed): as the sequence (P03952 20-390 partner limits assumed) above

Take `O=C(Nc1cc(NCc2nc3ccc(C4CC4)nn3n2)ccn1)[C@H]1C[C@@H]1c1cccc(Cl)c1` [Example 29, (1S,2S)-2-(3-chlorophenyl)-N-(4-(((6-cyclopropyl-[1,2,4]triazolo[1,5-b]pyridazin-2-yl)methyl)amino)pyridin-2-yl)cyclopropane-1-carboxamide]: the pEC50 in test [1] was 7.60 to 8.60. For the same compound, the IC90 in test [2] lay in the range of 5000 to 65000 nM.
For `O=C(Nc1cc(NCc2nc3ncc(C4CC4)cn3n2)ccn1)[C@H]1C[C@@H]1c1cccc(Cl)c1` [Example 31, (1S,2S)-2-(3-chlorophenyl)-N-(4-(((6-cyclopropyl-[1,2,4]triazolo[1,5-a]pyrimidin-2-yl)methyl)amino)pyridin-2-yl)cyclopropane-1-carboxamide], in that order: greater than 8.60 and 500 to 5000 nM.
On the same counts, the results for `O=C(Nc1nccc2nn(Cc3cn4nc(C5CC5)ccc4n3)cc12)[C@H]1C[C@@H]1c1cccc(Cl)c1` [Example 35, (1S,2S)-2-(3-chlorophenyl)-N-(2-((6-cyclopropylimidazo[1,2-b]pyridazin-2-yl)methyl)-2H-pyrazolo[4,3-c]pyridin-4-yl)cyclopropane-1-carboxamide] are greater than 8.60 and 500 to 5000 nM.
On the same counts, the results for `CN1CCN(c2cc(C3CC3)nn3cc(CNc4cc(NC(=O)[C@H]5C[C@@H]5c5cccc(Cl)c5)ncn4)nc23)CC1` [Example 39, (1S,2S)-2-(3-chlorophenyl)-N-(6-(((6-cyclopropyl-8-(4-methylpiperazin-1-yl)imidazo[1,2-b]pyridazin-2-yl)methyl)amino)pyrimidin-4-yl)cyclopropane-1-carboxamide] are greater than 8.60 and 5000 to 65000 nM.
In the case of `CN1CCN(c2cc(C3CC3)nn3cc(CNc4ccnc(NC(=O)[C@H]5C[C@@H]5c5cccc(Cl)c5)c4)nc23)CC1` [Example 40, (1S,2S)-2-(3-chlorophenyl)-N-(4-(((6-cyclopropyl-8-(4-methylpiperazin-1-yl)imidazo[1,2-b]pyridazin-2-yl)methyl)amino)pyridin-2-yl)cyclopropane-1-carboxamide], in test [1], the pEC50 was greater than 8.60. In test [2], the concentration for an effect of 90% (IC90) was 500 to 5000 nM.
On the same counts, the results for `CN1CCN(c2cc(C3CC3)cn3nc(CNc4ccnc(NC(=O)[C@H]5C[C@@H]5c5cccc(Cl)c5)c4)nc23)CC1` [Example 45, (1S,2S)-2-(3-chlorophenyl)-N-(4-(((6-cyclopropyl-8-(4-methylpiperazin-1-yl)-[1,2,4]triazolo[1,5-a]pyridin-2-yl)methyl)amino)pyridin-2-yl)cyclopropane-1-carboxamide] are greater than 8.60 and 5000 to 65000 nM.
`O=C(Nc1cc(NCc2cn3nc(C4CC4)ccc3n2)ccn1)[C@H]1C[C@@H]1c1cccc(Cl)c1` [Example 46, (1S,2S)-2-(3-chlorophenyl)-N-(4-(((6-cyclopropylimidazo[1,2-b]pyridazin-2-yl)methyl)amino)pyridin-2-yl)cyclopropane-1-carboxamide]: the pEC50 in test [1] was greater than 8.60. Besides, the 90% effect concentration (IC90) in test [2] is 5000 to 65000 nM.
As to `O=C(Nc1cc(NCc2cc3cc(C4CC4)cc(N4CCOC4=O)n3n2)ncn1)[C@H]1C[C@@H]1c1cccc(Cl)c1` [Example 49, (1S,2S)-2-(3-chlorophenyl)-N-(6-(((5-cyclopropyl-7-(2-oxooxazolidin-3-yl)pyrazolo[1,5-a]pyridin-2-yl)methyl)amino)pyrimidin-4-yl)cyclopropane-1-carboxamide], the pEC50 in test [1] was greater than 8.60. Besides, the IC90 in test [2] lay within 500 to 5000 nM.
As to `O=C(Nc1cc(NCc2cc3cc(C4CC4)cc(N4CCCC4=O)n3n2)ncn1)[C@H]1C[C@@H]1c1cccc(Cl)c1` [Example 52, (1S,2S)-2-(3-chlorophenyl)-N-(6-(((5-cyclopropyl-7-(2-oxopyrrolidin-1-yl)pyrazolo[1,5-a]pyridin-2-yl)methyl)amino)pyrimidin-4-yl)cyclopropane-1-carboxamide], the pEC50 in test [1] was 7.60 to 8.60. The IC90 in test [2] is 500 to 5000 nM.
With `CN1CCN(c2cc(C3CC3)cc3cc(CNc4cc(NC(=O)[C@H]5C[C@@H]5c5cccc(Cl)c5)ncn4)nn23)CC1` [Example 53, (1S,2S)-2-(3-chlorophenyl)-N-(6-(((5-cyclopropyl-7-(4-methylpiperazin-1-yl)pyrazolo[1,5-a]pyridin-2-yl)methyl)amino)pyrimidin-4-yl)cyclopropane-1-carboxamide], the pEC50 in test [1] was greater than 8.60. In addition, the IC90 in test [2] was in the range of 500 to 5000 nM.
On the same counts, the results for `CN1CCN(c2cc(C3CC3)cc3cc(CNc4ccnc(NC(=O)[C@H]5C[C@@H]5c5cccc(Cl)c5)c4)nn23)CC1` [Example 54, (1S,2S)-2-(3-chlorophenyl)-N-(4-(((5-cyclopropyl-7-(4-methylpiperazin-1-yl)pyrazolo[1,5-a]pyridin-2-yl)methyl)amino)pyridin-2-yl)cyclopropane-1-carboxamide] are greater than 8.60 and 500 to 5000 nM.
On the same counts, the results for `O=C(Nc1cc(N2C[C@@H](O)C[C@@H]2c2cn3nc(C4CC4)ccc3n2)ncn1)[C@H]1C[C@@H]1c1cccc(Cl)c1` [Example 60, (1S,2S)-2-(3-chlorophenyl)-N-(6-((2R,4S)-2-(6-cyclopropylimidazo[1,2-b]pyridazin-2-yl)-4-hydroxypyrrolidin-1-yl)pyrimidin-4-yl)cyclopropane-1-carboxamide] are 7.60 to 8.60 and 500 to 5000 nM.
With `O=C(Nc1cc(N2C[C@@H](O)C[C@@H]2c2cn3nc(C4CC4)ccc3n2)ncn1)[C@H]1C[C@@H]1c1cc(Cl)ccn1` [Example 61, (1S,2S)-2-(4-chloropyridin-2-yl)-N-(6-((2R,4S)-2-(6-cyclopropylimidazo[1,2-b]pyridazin-2-yl)-4-hydroxypyrrolidin-1-yl)pyrimidin-4-yl)cyclopropane-1-carboxamide], the pEC50 in test [1] was greater than 8.60. In test [2], the IC90 lay within 500 to 5000 nM.
On the same counts, the results for `CN1C(=O)CN(c2cc(C3CC3)nn3cc(CNc4cc(NC(=O)[C@H]5C[C@@H]5c5cc(Cl)ccn5)ncn4)nc23)C1=O` [Example 63, (1S,2S)-2-(4-chloropyridin-2-yl)-N-(6-(((6-cyclopropyl-8-(3-methyl-2,4-dioxoimidazolidin-1-yl)imidazo[1,2-b]pyridazin-2-yl)methyl)amino)pyrimidin-4-yl)cyclopropane-1-carboxamide] are greater than 8.60 and 500 to 5000 nM.
For `O=C(Nc1cc(NCc2cn3cc(C4CC4)cnc3n2)ncn1)[C@H]1C[C@@H]1c1cc(Cl)ccn1` [Example 66, (1S,2S)-2-(4-chloropyridin-2-yl)-N-(6-(((6-cyclopropylimidazo[1,2-a]pyrimidin-2-yl)methyl)amino)pyrimidin-4-yl)cyclopropane-1-carboxamide], in that order: greater than 8.60 and 500 to 5000 nM.
For `O=C(Nc1cc(N2C[C@@H](O)C[C@@H]2c2cn3cc(C4CC4)cnc3n2)ncn1)[C@H]1C[C@@H]1c1cc(Cl)ccn1` [Example 73, (1S,2S)-2-(4-chloropyridin-2-yl)-N-(6-((2R,4S)-2-(6-cyclopropylimidazo[1,2-a]pyrimidin-2-yl)-4-hydroxypyrrolidin-1-yl)pyrimidin-4-yl)cyclopropane-1-carboxamide], in that order: greater than 8.60 and less than 500 nM.
Take `Cc1ccnc([C@H]2C[C@@H]2C(=O)Nc2cc(N(C)Cc3cn4cc(C5CC5)nc(N5CC(=O)N(C)C5=O)c4n3)ncn2)n1` [Example 83, (1S,2S)—N-(6-(((6-cyclopropyl-8-(3-methyl-2,4-dioxoimidazolidin-1-yl)imidazo[1,2-a]pyrazin-2-yl)methyl)(methyl)amino)pyrimidin-4-yl)-2-(4-methylpyrimidin-2-yl)cyclopropane-1-carboxamide]: in test [1], the pEC50 was greater than 8.60. Further, in test [2], the IC90 is less than 500 nM.
On the same counts, the results for `Cc1ccnc([C@H]2C[C@@H]2C(=O)Nc2cc(N(C)Cc3cn4cc(C5CC5)nc(N5CCCC5=O)c4n3)ncn2)n1` [Example 85, (1S,2S)—N-(6-(((6-cyclopropyl-8-(2-oxopyrrolidin-1-yl)imidazo[1,2-a]pyrazin-2-yl)methyl)(methyl)amino)pyrimidin-4-yl)-2-(4-methylpyrimidin-2-yl)cyclopropane-1-carboxamide] are greater than 8.60 and less than 500 nM.
On the same counts, the results for `Cc1ccnc([C@H]2C[C@@H]2C(=O)Nc2cc(N(C)Cc3nc4cc(C5CC5)cc(N5CC(=O)N(C)C5=O)c4[nH]3)nc(C)n2)n1` [Example 86, (S,2S)—N-(6-(((5-cyclopropyl-7-(3-methyl-2,4-dioxoimidazolidin-1-yl)-1H-benzo[d]imidazol-2-yl)methyl)(methyl)amino)-2-methylpyrimidin-4-yl)-2-(4-methylpyrimidin-2-yl)cyclopropane-1-carboxamide] are greater than 8.60 and 500 to 5000 nM.

The values are drawn from patent US20240226106A1, “INHIBITORS OF PLASMA KALLIKREIN” (SHIRE HUMAN GENETIC THERAPIES, INC., priority 2021, published 2024).
